Test results from patent publication US20250268859A1, “OXAFURAMINE, (1R)-N-ETHYL-1-[(2R)-OXOLAN-2-YL]-2-[…], HYDROCHLORIDE AND DERIVATIVES THEREOF FOR TREATING ALZHEIMER'S DISEASE (AD), […] […], […] WITH LEWY BODIES (DLB), MIXED […], FRON[…] DEGENERATION (FTLD), AND PARKINSON'S DISEASE (PD)” (NLS Pharmaceutics AG, priority 2021, published 2025).

Assays:
DAT (h) = molecular target: T1, DAT (h) (Homo sapiens, UniProt Q01959); experiment: Radioligand binding panel, DAT (h) (antagonist radioligand); conditions: % inhibition of control specific binding
T1 construct: Eurofins (contract panel)
Description: (§1) Oxafuramine is tested at 10^−5 M, calculated as a % inhibition of control specific binding of a radioactively labeled ligand specific for each target.
(§2) This binding profile panel was broadly defined with roughly an equal number of selective, central and peripheral therapeutically relevant targets, including native animal tissues, radioligands and specific enzymes involved in cell cycle regulation in accordance with Eurofins Standard Operating Procedure (www.eurofins.fr).
(§3) For radioligand binding experiments, the half maximal inhibitory concentration (IC50) and the half maximal effective concentration (EC50) values were determined (via computer software) by nonlinear regression analysis of the competition curves using Hill equation curve fitting. The inhibition constants (Ki) were calculated using the Cheng-Prusoff equation (Ki=IC50/(1+(L/KD)), where L is the concentration of radioligand in the assay, and KD is the affinity of the radioligand for the receptor.
(§4) The results are expressed as a % control specific binding ([measured specific binding/control specific binding]×100) and as a % inhibition of control specific binding (100−[(measured specific binding/control specific binding)×100]) obtained in the presence of the test compounds. […]

M4 (h) = molecular target: T2, M4 (h) (Homo sapiens, UniProt P08173); experiment: Radioligand binding panel, M4 (h) (antagonist radioligand); conditions: % inhibition of control specific binding
T2 construct: Eurofins (contract panel)
T2 sequence (P08173 1-479): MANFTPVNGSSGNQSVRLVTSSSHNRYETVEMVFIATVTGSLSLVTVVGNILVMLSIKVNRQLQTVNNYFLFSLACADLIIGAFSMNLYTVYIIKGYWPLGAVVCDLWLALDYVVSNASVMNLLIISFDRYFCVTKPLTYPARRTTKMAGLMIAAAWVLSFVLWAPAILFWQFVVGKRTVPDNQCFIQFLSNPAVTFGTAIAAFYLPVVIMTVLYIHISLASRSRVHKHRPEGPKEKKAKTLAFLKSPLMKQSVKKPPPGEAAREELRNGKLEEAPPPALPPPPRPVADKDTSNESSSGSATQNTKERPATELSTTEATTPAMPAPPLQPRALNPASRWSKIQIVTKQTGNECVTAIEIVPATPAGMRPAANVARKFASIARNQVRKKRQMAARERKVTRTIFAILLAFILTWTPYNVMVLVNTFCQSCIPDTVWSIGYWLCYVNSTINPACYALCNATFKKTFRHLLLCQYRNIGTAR
Description: as §1, §2, §3, §4

[1] = Body weight of the mice in the NOR study; type: in vivo, C57BL/6J, male; conditions: mean, N = 16
Description: Statistical analyses: • Read-outs: DI, N-F, ST, CT, N, F • Unpaired Student's t test: Donep 2 group vs. Control group. • One-way ANOVA, Dunnett test: • NLS-12 groups vs. Control group. • NLS-12 groups vs. Donep 2 group. • Read-outs: DI and N-F, for all groups, paired Student's t test, difference vs. 0. • Body weight: one-way ANOVA.

T1 sequence (Q01959 whole entry): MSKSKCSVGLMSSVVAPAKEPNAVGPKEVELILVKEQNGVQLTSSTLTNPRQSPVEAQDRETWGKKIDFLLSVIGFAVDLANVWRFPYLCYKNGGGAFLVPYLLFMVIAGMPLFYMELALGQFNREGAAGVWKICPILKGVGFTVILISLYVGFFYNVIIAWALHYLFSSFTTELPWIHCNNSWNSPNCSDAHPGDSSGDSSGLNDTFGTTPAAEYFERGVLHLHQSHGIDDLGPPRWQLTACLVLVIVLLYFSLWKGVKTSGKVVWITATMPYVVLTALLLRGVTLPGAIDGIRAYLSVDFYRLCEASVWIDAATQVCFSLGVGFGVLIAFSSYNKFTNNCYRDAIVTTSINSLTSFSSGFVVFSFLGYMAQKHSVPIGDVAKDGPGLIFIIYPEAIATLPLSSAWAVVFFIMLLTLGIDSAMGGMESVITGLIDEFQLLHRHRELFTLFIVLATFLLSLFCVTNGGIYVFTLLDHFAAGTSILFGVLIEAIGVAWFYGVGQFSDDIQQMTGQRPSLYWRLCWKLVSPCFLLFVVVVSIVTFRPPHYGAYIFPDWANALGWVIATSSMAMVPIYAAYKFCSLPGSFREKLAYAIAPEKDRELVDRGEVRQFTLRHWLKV

## CCN[C@H](Cc1ccccc1)[C@H]1CCCO1 [Oxafuramine, (1R)—N-ethyl-1-[(2R)-oxolan-2-yl]-2-phenylethanamine]
DAT (h); 10^−5 M
  inhibition at 10 µM: 94.1%
DAT (h)
  % Inhibition at 10^−5M, DAT (h) (antagonist radioligand): appreciable potencies
M4 (h); 10^−5 M
  inhibition at 10 µM: ~51%
M4 (h)
  % Inhibition at 10^−5M, M4 (h) (antagonist radioligand): 50.8%
[1]; NLS-12 1 mg/kg i.p. group
  BW Body weight: 22.8 g
[1]; NLS-12 4 mg/kg i.p. group
  BW Body weight: 23.5 g
[1]; NLS-12 8 mg/kg i.p. group
  BW Body weight: 22.9 g
